Test results reported in publication PMC11249646, “Small-Molecule Disruptors of the Interaction between Calcium- and Integrin-Binding Protein 1 and Integrin αIIbβ3 as Novel Antiplatelet Agents” (ACS Pharmacology & Translational Science, 2024).

What follows are compounds tested against T1, CIB1 and αIIb interaction (CIB1-GST : F-αIIb peptide) (Homo sapiens, UniProt Q99828) (assay: FP assay, 1536-well qHTS format (primary and confirmatory screen)). Conditions: confirmatory screen.
T1 construct: made in house; host or cells: BL-21 plus RIL cells (E. coli)
T1 sequence (Q99828 1-191): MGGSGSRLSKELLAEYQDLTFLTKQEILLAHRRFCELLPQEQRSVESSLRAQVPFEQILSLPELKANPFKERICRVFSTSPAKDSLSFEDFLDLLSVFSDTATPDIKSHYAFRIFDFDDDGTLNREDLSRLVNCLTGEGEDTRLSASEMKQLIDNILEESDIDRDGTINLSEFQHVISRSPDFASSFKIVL
Format: binding
With C=C(CC)C(=O)c1ccc(OCC(=O)O)c(Cl)c1Cl [NCGC00016260-13] the “Efficacy (%) (confirmatory screen)” value was -56%. In the case of CN(C(=O)CN(CCO)CC(=O)N(C)C(C)(C)Cc1ccccc1)C(C)(C)Cc1ccccc1 [NCGC00016382-07], the “Efficacy (%) (confirmatory screen)” value is reported as -52%. In the case of O=c1cc(-c2ccccc2)oc2cc(O)c(O)c(O)c12 [NCGC00017236-08], the “Efficacy (%) (confirmatory screen)” value is reported as -112%. With CN1C[C@H](CNC(=O)OCc2ccccc2)C[C@@H]2c3cccc4c3c(cn4C)C[C@H]21 [NCGC00017257-10] the “Efficacy (%) (confirmatory screen)” value was -126%. With O=C(O)c1cc(O)c2c(c1)C(=O)c1cccc(O)c1C2=O [NCGC00018199-06] the “Efficacy (%) (confirmatory screen)” value was -66%. In the case of CC[C@@H](CO)NC(=O)[C@@H]1C=C2c3cccc4c3c(cn4C)C[C@H]2N(C)C1.O=C(O)/C=C\C(=O)O [NCGC00024027-06], the “Efficacy (%) (confirmatory screen)” value is reported as -88%.

Same assay, conditions: confirmatory screen, YES/NO
For C=C(CC)C(=O)c1ccc(OCC(=O)O)c(Cl)c1Cl [NCGC00016260-13], the “Confirm? (confirmatory screen)” value was “YES”. In the case of CN(C(=O)CN(CCO)CC(=O)N(C)C(C)(C)Cc1ccccc1)C(C)(C)Cc1ccccc1 [NCGC00016382-07], the “Confirm? (confirmatory screen)” value is reported as “YES”. For CN1C[C@H](CNC(=O)OCc2ccccc2)C[C@@H]2c3cccc4c3c(cn4C)C[C@H]21 [NCGC00017257-10], the “Confirm? (confirmatory screen)” value was “YES”. For O=C(O)c1cc(O)c2c(c1)C(=O)c1cccc(O)c1C2=O [NCGC00018199-06], the “Confirm? (confirmatory screen)” value was “YES”. CC[C@@H](CO)NC(=O)[C@@H]1C=C2c3cccc4c3c(cn4C)C[C@H]2N(C)C1.O=C(O)/C=C\C(=O)O [NCGC00024027-06] was tested, and the “Confirm? (confirmatory screen)” value was “YES”.

Same assay, conditions: confirmatory screen, qHTS curve class; negative sign = inhibitory curve
C=C(CC)C(=O)c1ccc(OCC(=O)O)c(Cl)c1Cl [NCGC00016260-13] was tested, and the “Curve Class (confirmatory screen)” value was -2.4. For CN(C(=O)CN(CCO)CC(=O)N(C)C(C)(C)Cc1ccccc1)C(C)(C)Cc1ccccc1 [NCGC00016382-07], the “Curve Class (confirmatory screen)” value was -3. With CN1C[C@H](CNC(=O)OCc2ccccc2)C[C@@H]2c3cccc4c3c(cn4C)C[C@H]21 [NCGC00017257-10] the “Curve Class (confirmatory screen)” value was -2.1. With O=C(O)c1cc(O)c2c(c1)C(=O)c1cccc(O)c1C2=O [NCGC00018199-06] the “Curve Class (confirmatory screen)” value was -1.2. With CC[C@@H](CO)NC(=O)[C@@H]1C=C2c3cccc4c3c(cn4C)C[C@H]2N(C)C1.O=C(O)/C=C\C(=O)O [NCGC00024027-06] the “Curve Class (confirmatory screen)” value was -2.2.

Same assay, conditions: confirmatory screen; read-out: IC50 [μM] (confirmatory screen)
Work on C=C(CC)C(=O)c1ccc(OCC(=O)O)c(Cl)c1Cl [NCGC00016260-13] yielded an IC50 of 44.7 µM. CN(C(=O)CN(CCO)CC(=O)N(C)C(C)(C)Cc1ccccc1)C(C)(C)Cc1ccccc1 [NCGC00016382-07] showed an IC50 of 79.4 µM. O=c1cc(-c2ccccc2)oc2cc(O)c(O)c(O)c12 [NCGC00017236-08] gave an IC50 of 39.8 µM. Work on CN1C[C@H](CNC(=O)OCc2ccccc2)C[C@@H]2c3cccc4c3c(cn4C)C[C@H]21 [NCGC00017257-10] yielded an IC50 of 44.7 µM. For CC[C@@H](CO)NC(=O)[C@@H]1C=C2c3cccc4c3c(cn4C)C[C@H]2N(C)C1.O=C(O)/C=C\C(=O)O [NCGC00024027-06], the IC50 was 44.7 µM.

Same assay, conditions: qHTS FP screen hits, Table S2; negative = inhibition
For C=C(CC)C(=O)c1ccc(OCC(=O)O)c(Cl)c1Cl [NCGC00016260-13], the “Efficacy (%)” value was -28%. In the case of CN(C(=O)CN(CCO)CC(=O)N(C)C(C)(C)Cc1ccccc1)C(C)(C)Cc1ccccc1 [NCGC00016382-07], the “Efficacy (%)” value is reported as -59%. For CN1C[C@H](CNC(=O)OCc2ccccc2)C[C@@H]2c3cccc4c3c(cn4C)C[C@H]21 [NCGC00017257-10], the “Efficacy (%)” value was -75%.

Same assay, conditions: qHTS FP screen hits, Table S2; one class per curve where COUNT > 1; negative sign = inhibitory curve
With C=C(CC)C(=O)c1ccc(OCC(=O)O)c(Cl)c1Cl [NCGC00016260-13] the “Curve Class” value was -1.2. With CN(C(=O)CN(CCO)CC(=O)N(C)C(C)(C)Cc1ccccc1)C(C)(C)Cc1ccccc1 [NCGC00016382-07] the “Curve Class” value was -3.

Same assay, conditions: qHTS FP screen hits, Table S2; read-out: IC50
For C=C(CC)C(=O)c1ccc(OCC(=O)O)c(Cl)c1Cl [NCGC00016260-13], the IC50 was 1.3 µM. CN(C(=O)CN(CCO)CC(=O)N(C)C(C)(C)Cc1ccccc1)C(C)(C)Cc1ccccc1 [NCGC00016382-07] showed an IC50 of 28.2 µM. CN1C[C@H](CNC(=O)OCc2ccccc2)C[C@@H]2c3cccc4c3c(cn4C)C[C@H]21 [NCGC00017257-10] showed an IC50 of 36.4 µM.

Same assay, conditions: qHTS primary screen hits, Table S2; negative = inhibition
In the case of O=c1cc(-c2ccccc2)oc2cc(O)c(O)c(O)c12 [NCGC00017236-08], the “Efficacy (%)” value is reported as -30%. O=C(O)c1cc(O)c2c(c1)C(=O)c1cccc(O)c1C2=O [NCGC00018199-06] was tested, and the “Efficacy (%)” value was -32%.

Same assay, conditions: qHTS primary screen hits, Table S2; negative sign = inhibitory curve; several classes where COUNT > 1
With O=C(O)c1cc(O)c2c(c1)C(=O)c1cccc(O)c1C2=O [NCGC00018199-06] the “Curve Class” value was -2.2.

Same assay, conditions: qHTS primary screen hits, Table S2; read-out: IC50
O=c1cc(-c2ccccc2)oc2cc(O)c(O)c(O)c12 [NCGC00017236-08] gave an IC50 of 34.1 µM.

These compounds were tested against T2, GST-CIB1 : F-scrambled peptide (Homo sapiens, UniProt Q99828) (assay: FP scrambled-peptide counter screen, 1536-well format). Conditions: counterscreen.
T2 construct: made in house; host or cells: BL-21 plus RIL cells (E. coli)
T2 sequence (Q99828 1-191): T1 sequence (Q99828 1-191)
Format: binding
With C=C(CC)C(=O)c1ccc(OCC(=O)O)c(Cl)c1Cl [NCGC00016260-13] the “Efficacy (%) (counterscreen)” value was 0%. CN(C(=O)CN(CCO)CC(=O)N(C)C(C)(C)Cc1ccccc1)C(C)(C)Cc1ccccc1 [NCGC00016382-07] was tested, and the “Efficacy (%) (counterscreen)” value was -33%. In the case of O=c1cc(-c2ccccc2)oc2cc(O)c(O)c(O)c12 [NCGC00017236-08], the “Efficacy (%) (counterscreen)” value is reported as -64%. For CN1C[C@H](CNC(=O)OCc2ccccc2)C[C@@H]2c3cccc4c3c(cn4C)C[C@H]21 [NCGC00017257-10], the “Efficacy (%) (counterscreen)” value was -32%. For O=C(O)c1cc(O)c2c(c1)C(=O)c1cccc(O)c1C2=O [NCGC00018199-06], the “Efficacy (%) (counterscreen)” value was -61%. With CC[C@@H](CO)NC(=O)[C@@H]1C=C2c3cccc4c3c(cn4C)C[C@H]2N(C)C1.O=C(O)/C=C\C(=O)O [NCGC00024027-06] the “Efficacy (%) (counterscreen)” value was -73%.

Same assay, conditions: counterscreen, YES/NO
C=C(CC)C(=O)c1ccc(OCC(=O)O)c(Cl)c1Cl [NCGC00016260-13] was tested, and the “Confirm? (counterscreen)” value was “YES”. With CN1C[C@H](CNC(=O)OCc2ccccc2)C[C@@H]2c3cccc4c3c(cn4C)C[C@H]21 [NCGC00017257-10] the “Confirm? (counterscreen)” value was “YES”.

Same assay, conditions: counterscreen, qHTS curve class; negative sign = inhibitory curve
With C=C(CC)C(=O)c1ccc(OCC(=O)O)c(Cl)c1Cl [NCGC00016260-13] the “Curve Class (counterscreen)” value was 4. CN(C(=O)CN(CCO)CC(=O)N(C)C(C)(C)Cc1ccccc1)C(C)(C)Cc1ccccc1 [NCGC00016382-07] was tested, and the “Curve Class (counterscreen)” value was -2.4. For CN1C[C@H](CNC(=O)OCc2ccccc2)C[C@@H]2c3cccc4c3c(cn4C)C[C@H]21 [NCGC00017257-10], the “Curve Class (counterscreen)” value was -2.4. With O=C(O)c1cc(O)c2c(c1)C(=O)c1cccc(O)c1C2=O [NCGC00018199-06] the “Curve Class (counterscreen)” value was -1.2. In the case of CC[C@@H](CO)NC(=O)[C@@H]1C=C2c3cccc4c3c(cn4C)C[C@H]2N(C)C1.O=C(O)/C=C\C(=O)O [NCGC00024027-06], the “Curve Class (counterscreen)” value is reported as -3.

Same assay, conditions: counterscreen; read-out: IC50 [μM] (counterscreen)
Compound CN(C(=O)CN(CCO)CC(=O)N(C)C(C)(C)Cc1ccccc1)C(C)(C)Cc1ccccc1 [NCGC00016382-07] has an IC50 of 70.8 µM. Work on O=c1cc(-c2ccccc2)oc2cc(O)c(O)c(O)c12 [NCGC00017236-08] yielded an IC50 of 39.8 µM. CN1C[C@H](CNC(=O)OCc2ccccc2)C[C@@H]2c3cccc4c3c(cn4C)C[C@H]21 [NCGC00017257-10] was tested, and the IC50 was 63.1 µM. CC[C@@H](CO)NC(=O)[C@@H]1C=C2c3cccc4c3c(cn4C)C[C@H]2N(C)C1.O=C(O)/C=C\C(=O)O [NCGC00024027-06] gave an IC50 of 89.1 µM.
